The term Ki denotes the dissociation constant of the complex between target and ligand, obtained from inhibition or displacement. A lower Ki goes with higher affinity. Broadly, the EC50 is the concentration that produces a half-maximal response. Read a low EC50 as higher potency in that assay.

Experiment [1] deals with Beta-1 adrenergic receptor (Homo sapiens, UniProt P08588). The experiment can be described thus: Ability to bind to human Beta-1 adrenergic receptor using membranes of stably transfected CHO cells. It is filed as cell-based.
Beta-1 adrenergic receptor, sequence (P08588 whole entry): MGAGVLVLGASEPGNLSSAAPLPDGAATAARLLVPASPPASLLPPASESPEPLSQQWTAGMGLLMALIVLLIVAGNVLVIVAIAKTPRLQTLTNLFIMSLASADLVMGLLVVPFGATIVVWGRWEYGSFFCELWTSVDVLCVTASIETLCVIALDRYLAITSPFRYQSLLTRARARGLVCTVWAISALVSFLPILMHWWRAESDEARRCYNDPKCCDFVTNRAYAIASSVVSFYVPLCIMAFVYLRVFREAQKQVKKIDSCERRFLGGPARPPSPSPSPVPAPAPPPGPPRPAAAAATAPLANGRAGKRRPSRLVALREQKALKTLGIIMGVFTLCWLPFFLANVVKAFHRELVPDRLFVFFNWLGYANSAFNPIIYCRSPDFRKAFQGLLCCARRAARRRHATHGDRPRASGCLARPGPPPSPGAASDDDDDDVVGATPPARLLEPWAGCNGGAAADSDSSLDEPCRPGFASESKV
The target in experiment [2] is T1, Beta-3 adrenergic receptor (Homo sapiens, UniProt P13945). Kind of experiment: Ability to bind to human Beta-3 adrenergic receptor using membranes of stably transfected CHO cells. It is filed as cell-based.
Target sequence in this assay (P13945 whole entry): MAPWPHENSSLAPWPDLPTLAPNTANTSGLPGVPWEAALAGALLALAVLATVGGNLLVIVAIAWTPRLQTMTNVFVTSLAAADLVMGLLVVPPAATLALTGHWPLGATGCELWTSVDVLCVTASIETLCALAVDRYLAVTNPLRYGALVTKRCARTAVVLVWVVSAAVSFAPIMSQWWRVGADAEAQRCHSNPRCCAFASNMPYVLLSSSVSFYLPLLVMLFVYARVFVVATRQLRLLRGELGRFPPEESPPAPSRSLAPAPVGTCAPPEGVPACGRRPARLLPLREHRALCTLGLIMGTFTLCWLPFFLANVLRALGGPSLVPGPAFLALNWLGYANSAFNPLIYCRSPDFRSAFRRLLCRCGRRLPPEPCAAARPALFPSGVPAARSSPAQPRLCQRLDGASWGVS
The target in experiment [3] is Beta-2 adrenergic receptor (Homo sapiens, UniProt P07550). Kind of experiment: Ability to bind to human Beta-2 adrenergic receptor using membranes of stably transfected CHO cells. The class given is cell-based.
Beta-2 adrenergic receptor, sequence (P07550 whole entry): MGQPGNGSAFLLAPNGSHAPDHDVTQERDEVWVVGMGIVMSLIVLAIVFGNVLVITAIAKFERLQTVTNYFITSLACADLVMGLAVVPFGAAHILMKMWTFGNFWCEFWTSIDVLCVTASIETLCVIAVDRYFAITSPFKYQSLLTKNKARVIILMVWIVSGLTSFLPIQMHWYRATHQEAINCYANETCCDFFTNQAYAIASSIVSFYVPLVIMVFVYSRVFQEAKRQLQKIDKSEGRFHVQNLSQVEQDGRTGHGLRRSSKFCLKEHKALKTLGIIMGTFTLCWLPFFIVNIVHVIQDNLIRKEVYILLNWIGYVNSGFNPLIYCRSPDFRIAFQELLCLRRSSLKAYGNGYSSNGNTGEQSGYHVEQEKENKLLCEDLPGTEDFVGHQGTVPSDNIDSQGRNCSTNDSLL
In experiment [4] the target is Adrenergic receptor beta; ADRB1 & ADRB3 (Homo sapiens) (UniProt P08588+P13945). Kind of experiment: Binding selectivity ratio for beta 3 over beta 1 AR (S beta3/beta1). It is filed as protein assay.
Adrenergic receptor beta; ADRB1 & ADRB3 (Homo sapiens), sequence (P08588 whole entry, looked up): as the sequence (P08588 whole entry) above
Adrenergic receptor beta; ADRB1 & ADRB3 (Homo sapiens), sequence (P13945 whole entry, looked up): as the sequence (P13945 whole entry) above
The target of experiment [5] is Beta-2 adrenergic receptor and beta-3 adrenergic receptor (Homo sapiens) (UniProt P07550+P13945). Kind of experiment: Binding selectivity ratio for beta 3 over beta 2 AR (S beta3/beta2). It is filed as protein assay.
The target of experiment [6] is T1, Beta-3 adrenergic receptor. Kind of experiment: Intrinsic activity as maximal cyclase activity in CHO-beta3 AR cell membranes compared to (-)-isoproterenol. It is filed as functional, cell-based.
Target sequence in this assay (P13945 whole entry, looked up): as the sequence (P13945 whole entry) above
The target in experiment [7] is T1, Beta-3 adrenergic receptor. Kind of experiment: Effective concentration for stimulation of adenylyl cyclase activity in CHO-beta3 AR expressing cell membranes. The class given is functional.
Target sequence in this assay (P13945 whole entry): as above

With `C[C@H](Cc1ccc(OCP(C)(=O)O)cc1)NC[C@H](O)c1cccc(Cl)c1`, the figures for the Ki in experiment [1], in experiment [2] and in experiment [3] were 140000 nM, 19900 nM and 73700 nM, respectively. Moreover, the Selectivity was 7 in experiment [4] and 3.7 in experiment [5].

On to `C[C@H](Cc1ccc(OC(C(=O)O)C(=O)O)cc1)NC[C@H](O)c1cccc(Cl)c1`, for which the Ki stood at 243000 nM in experiment [1], 11100 nM in experiment [2] and 17100 nM in experiment [3]. For the same compound, the Selectivity in experiment [4] turned out to be 22; in experiment [5], 1.5.

In the case of `C[C@H](Cc1ccc(OCS(=O)(=O)O)cc1)NC[C@H](O)c1cccc(Cl)c1`, the Ki in experiment [1] came to 7600 nM; in experiment [2], 806 nM; in experiment [3], 2250 nM. In experiment [6], this compound registered an Activity of 0.57. This compound also returned an EC50 in experiment [7] of 60 nM. For the same compound, the results for the Selectivity in experiment [4] and in experiment [5] were 9.4 and 2.8, respectively.

On to `C[C@H](Cc1ccc(OCC(=O)NO)cc1)NC[C@H](O)c1cccc(Cl)c1`, for which the Ki is 310 nM in experiment [1], 1960 nM in experiment [2] and 112 nM in experiment [3]. In experiment [6], this compound returned an Activity of 0.66. This compound showed an EC50 in experiment [7] of 1610 nM. The Selectivity in experiment [4] was 0.16; in experiment [5] it was 0.057.

For `C[C@H](Cc1ccc(OCC(=O)O)cc1)NC[C@H](O)c1cccc(Cl)c1`, in experiment [6], the Activity was 0.67.

For `C[C@H](Cc1ccc(OCCO)cc1)NC[C@H](O)c1cccc(Cl)c1`, the Ki came to 1250 nM in experiment [1], 2140 nM in experiment [2] and 260 nM in experiment [3]. In experiment [6], this compound yielded an Activity of 0.77. Also, in experiment [7], a half-maximal response (EC50) required 750 nM. Also, the results for the Selectivity in experiment [4] and in experiment [5] were 0.58 and 0.12, respectively.

Turning to `C[C@H](Cc1ccc(OCP(=O)(O)O)cc1)NC[C@H](O)c1cccc(Cl)c1`, the inhibitory constant (Ki) is > 100000 nM in experiment [1], 55300 nM in experiment [2] and 39700 nM in experiment [3]. In experiment [6], this compound displayed an Activity of 0.53. Besides, the EC50 in experiment [7] is 2640 nM. Further, the Selectivity in experiment [4] was > 1.8; in experiment [5], 0.72.

Regarding `COC(=O)COc1ccc(C[C@@H](C)NC[C@H](O)c2cccc(Cl)c2)cc1`, the inhibitory constant (Ki) was 170 nM in experiment [1], 1150 nM in experiment [2] and 3.2 nM in experiment [3]. The Activity in experiment [6] came out at 0.69. The compound further gave an EC50 in experiment [7] of 420 nM. In addition, the Selectivity in experiment [4] came out at 0.15; in experiment [5], 0.0028.

For `C[C@H](Cc1ccc(OCC(N)=O)cc1)NC[C@H](O)c1cccc(Cl)c1`, the results for the Ki in experiment [1], in experiment [2] and in experiment [3] were 590 nM, 3700 nM and 170 nM, respectively. This compound also gave an Activity in experiment [6] of 0.6. The compound further came in with an EC50 in experiment [7] of 1610 nM. Besides, the Selectivity in experiment [4] amounted to 0.16; in experiment [5] it was 0.046.

For the compound `CC(C)OP(=O)(O)COc1ccc(C[C@@H](C)NC[C@H](O)c2cccc(Cl)c2)cc1`, the inhibition constant Ki in experiment [1] came to 139000 nM; in experiment [2], 18800 nM; in experiment [3] it was 42600 nM. Moreover, the Activity in experiment [6] came out at 0.59. Further, the EC50 in experiment [7] is 610 nM. In addition, the Selectivity is 7.4 in experiment [4] and 2.3 in experiment [5].
